The record followed here is patent US20230025807A1 (priority 2019, published 2023).

Each structure is given as a SMILES string. Structures can show the parent of a compound that is named as a salt.

One assay addresses T1, Human CD38 (Homo sapiens, UniProt P28907).
T1 construct: purchased BPS Bioscience 79287
T1 sequence (P28907 1-300): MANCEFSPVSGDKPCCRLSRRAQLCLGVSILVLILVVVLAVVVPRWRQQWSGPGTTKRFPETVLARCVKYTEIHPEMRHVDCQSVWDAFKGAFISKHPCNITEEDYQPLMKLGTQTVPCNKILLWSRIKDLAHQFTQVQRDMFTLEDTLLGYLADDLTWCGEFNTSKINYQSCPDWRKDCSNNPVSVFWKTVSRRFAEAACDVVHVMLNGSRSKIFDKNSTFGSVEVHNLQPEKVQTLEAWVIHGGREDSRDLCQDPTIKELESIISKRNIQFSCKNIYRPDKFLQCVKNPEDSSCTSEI
Put plainly: biochemical.
Conditions: not given
As for the experimental part:
CD38 hydrolase buffer (4×) was thawed on ice and 1×CD38 hydrolase buffer was prepared by diluting 4×CD38 hydrolase buffer with water. CD38 hydrolase enzyme was diluted to […] with 1×CD38 hydrolase buffer (10 ng/well). Master mix was prepared by mixing equal volumes of water and CD38 hydrolase buffer (4×) and 10 μl of the mix was added to all the wells. Following master mix addition, 10 μl of the inhibitors and 20 μl of CD38 hydrolase enzyme were added to the wells. For wells designated blank, 10 μl and 20 μl of 1×CD38 hydrolase buffer was added respectively in place of CD38 enzyme and inhibitors. The plate was covered and incubated 30 min at room temperature with slow shaking at 400 rpm. After 30 min incubation, the plate was removed and 10 μl of diluted ε-NAD substrate was added to all the wells. The plate is incubated for 10 min, spun at 1200 rpm for 30 secs to remove bubbles and read in Tecan Spark using a fluorometer setting of excitation 300 nm and emission 410 nm. The reading for the blank was subtracted from all the values. IC50 for the test compounds were determined by using Graphpad prism software v7.0.
As usually defined, the IC50 is the concentration needed to halve the response being measured. In turn, `O=C(NC12CC3CC(CC(C3)C1)C2)c1cc(-c2cncs2)cc2[nH]ccc12` [Example 44, N-(adamantan-1-yl)-6-(thiazol-5-yl)-1H-indole-4-carboxamide] came in with an IC50 of 393 nM.
Still for that read-out and setting: the value for `O=C(NCc1ccc(N2CCOCC2)cc1)c1cc(-c2cncs2)cc2[nH]ccc12` [Example 33, N-(4-morpholinobenzyl)-6-(thiazol-5-yl)-1H-indole-4-carboxamide] was > 10000 nM; that for `COCCO[C@H]1CC[C@H](NC(=O)c2cc(-n3ccnc3)cc3c(C(=O)O)c[nH]c23)CC1` [Example 11, 5-(1H-imidazol-1-yl)-7-(((1r,4r)-4-(2-methoxyethoxy)cyclohexyl)carbamoyl)-1H-indole-3-carboxylic acid] was 580 nM.
Same read-out and setting: the value for `O=C(NC1CCNCC1)c1cc(-c2cncs2)cc2[nH]ccc12` [Example 35, N-(piperidin-4-yl)-6-(thiazol-5-yl)-1H-indole-4-carboxamide hydrochloride] was 7800 nM; that for `O=C(NC1CCS(=O)(=O)CC1)c1cc(-c2cncs2)cc2[nH]ccc12` [Example 24, N-(1,1-dioxidotetrahydro-2H-thiopyran-4-yl)-6-(thiazol-5-yl)-1H-indole-4-carboxamide] was 198 nM; that for `O=C(NCC1CCOCC1)c1cc(-c2cncs2)cc2[nH]ccc12` [Example 27, N-((tetrahydro-2H-pyran-4-yl)methyl)-6-(thiazol-5-yl)-1H-indole-4-carboxamide] was 3700 nM.
On the same count and under the same terms, then `COCCO[C@H]1CC[C@H](NC(=O)c2cc(-c3cncs3)cc3c2ccn3C(C)C)CC1` [Example 52, 1-isopropyl-N-((1r,4r)-4-(2-methoxyethoxy)cyclohexyl)-6-(thiazol-5-yl)-1H-indole-4-carboxamide], with 1400 nM; and `C[C@H]1CCCC[C@H]1NC(=O)c1cc(-c2cncs2)cc2[nH]ccc12` [Example 40, N-((1R,2S)-2-methylcyclohexyl)-6-(thiazol-5-yl)-1H-indole-4-carboxamide], with 78 nM; and `COCCO[C@H]1CC[C@H](NC(=O)c2cc(-n3cccn3)cc3cc[nH]c23)CC1` [Example 2, N-((1r,4r)-4-(2-methoxyethoxy)cyclohexyl)-5-(1H-pyrazol-1-yl)-1H-indole-7-carboxamide], with > 100000 nM.
For `COCCO[C@H]1C[C@@H](NC(=O)c2cc(-c3cncs3)cc3[nH]ccc23)C1` [Example 32, N-((1s,3s)-3-(2-methoxyethoxy)cyclobutyl)-6-(thiazol-5-yl)-1H-indole-4-carboxamide], the IC50 was 3300 nM.
Same read-out and setting: the value for `COCCO[C@H]1CC[C@H](NC(=O)c2cc(-n3ccnc3)cc3c(CN(C)C)c[nH]c23)CC1` [Example 16, 3-((dimethylamino)methyl)-5-(1H-imidazol-1-yl)-N-((1r,4r)-4-(2-methoxyethoxy)cyclohexyl)-1H-indole-7-carboxamide] was 800 nM; that for `O=C(NC1CCOCC1)c1cc(-c2cncs2)cc2[nH]ccc12` [Example 45, N-(tetrahydro-2H-pyran-4-yl)-6-(thiazol-5-yl)-1H-indole-4-carboxamide] was 664 nM; that for `CS(=O)(=O)CCNC(=O)c1cc(-c2cncs2)cc2[nH]ccc12` [Example 26, N-(2-(methylsulfonyl)ethyl)-6-(thiazol-5-yl)-1H-indole-4-carboxamide] was 1000 nM.
Same read-out and setting: the value for `COCCO[C@H]1CC[C@H](NC(=O)c2cc(-c3cncs3)cc3c2ccn3CC2COC2)CC1` [Example 50, N-((1r,4r)-4-(2-methoxyethoxy)cyclohexyl)-1-(oxetan-3-ylmethyl)-6-(thiazol-5-yl)-1H-indole-4-carboxamide] was 503 nM.
On the same count and under the same terms, then `COCCO[C@H]1CC[C@H](NC(=O)c2cc(-n3ccnc3)cc3c(I)c[nH]c23)CC1` [Example 22, 5-(1H-imidazol-1-yl)-3-iodo-N-((1r,4r)-4-(2-methoxyethoxy)cyclohexyl)-1H-indole-7-carboxamide], with 169 nM; and `COCCO[C@H]1CC[C@H](NC(=O)c2cc(-n3ccnc3)cc3c(C=O)c[nH]c23)CC1` [Example 15, 3-formyl-5-(1H-imidazol-1-yl)-N-((1r,4r)-4-(2-methoxyethoxy)cyclohexyl)-1H-indole-7-carboxamide], with 18000 nM; and `COCCO[C@H]1CC[C@H](NC(=O)c2cc(-n3ccnc3)cc3c(CN)c[nH]c23)CC1` [Example 17, 3-(aminomethyl)-5-(1H-imidazol-1-yl)-N-((1r,4r)-4-(2-methoxyethoxy)cyclohexyl)-1H-indole-7-carboxamide], with 890 nM.
Take `CC(NC(=O)c1cc(-c2cncs2)cc2[nH]ccc12)c1ccccc1F` (stereo not shown) [Example 39, N-(1-(2-fluorophenyl)ethyl)-6-(thiazol-5-yl)-1H-indole-4-carboxamide]: the IC50 turned out to be 197 nM.
Same read-out and setting: the value for `O=C(NC12CC3CC(CC(O)(C3)C1)C2)c1cc(-c2cncs2)cc2[nH]ccc12` [Example 28, N-((1r,3s,5R,7S)-3-hydroxyadamantan-1-yl)-6-(thiazol-5-yl)-1H-indole-4-carboxamide] was 523 nM; that for `CC(C)(O)[C@H]1CC[C@H](NC(=O)c2cc(-c3cncs3)cc3[nH]ccc23)CC1` [Example 29, N-((1r,4r)-4-(2-hydroxypropan-2-yl)cyclohexyl)-6-(thiazol-5-yl)-1H-indole-4-carboxamide] was 123 nM; that for `COCCO[C@H]1CC[C@H](NC(=O)c2nc(-n3ccnc3)cc3cc[nH]c23)CC1` [Example 59, 5-(1H-imidazol-1-yl)-N-((1r,4r)-4-(2-methoxyethoxy)cyclohexyl)-1H-pyrrolo[2,3-c]pyridine-7-carboxamide] was 6 nM.
With `O=C(NC1CCCCC1)c1cc(-c2cncs2)cc2[nH]ccc12` [Example 47, N-cyclohexyl-6-(thiazol-5-yl)-1H-indole-4-carboxamide], the IC50 was determined as 138 nM.
The same measure, in the same setting: then `COCCO[C@H]1CC[C@H](NC(=O)c2cc(-c3cncs3)cc3c(C#N)c[nH]c23)CC1` [Example 20, 3-cyano-N-((1r,4r)-4-(2-methoxyethoxy)cyclohexyl)-5-(thiazol-5-yl)-1H-indole-7-carboxamide], with 19 nM; and `COCCO[C@H]1CC[C@H](NC(=O)c2cc(-n3ccnc3)cc3[nH]cc(C#N)c23)CC1` [Example 56, 3-cyano-6-(1H-imidazol-1-yl)-N-((1r,4r)-4-(2-methoxyethoxy)cyclohexyl)-1H-indole-4-carboxamide], with 9.8 nM.
Still for that read-out and setting: the value for `CC1(O)CC(NC(=O)c2cc(-c3cncs3)cc3[nH]ccc23)C1` (stereo not shown) [Example 36, N-(3-hydroxy-3-methylcyclobutyl)-6-(thiazol-5-yl)-1H-indole-4-carboxamide] was 1500 nM.
Same read-out and setting: the value for `O=C(N[C@@H]1CC[C@@H](O)C1)c1cc(-c2cncs2)cc2[nH]ccc12` [Example 31, N-((1R,3R)-3-hydroxycyclopentyl)-6-(thiazol-5-yl)-1H-indole-4-carboxamide] was 392 nM; that for `CC(C)(O)CNC(=O)c1cc(-c2cncs2)cc2[nH]ccc12` [Example 43, N-(2-hydroxy-2-methylpropyl)-6-(thiazol-5-yl)-1H-indole-4-carboxamide] was 5100 nM.
Take `COCCO[C@H]1CC[C@H](NC(=O)c2cc(-n3ccnc3)cc3ccn(C)c23)CC1` [Example 54, 5-(1H-imidazol-1-yl)-N-((1r,4r)-4-(2-methoxyethoxy)cyclohexyl)-1-methyl-1H-indole-7-carboxamide]: inhibition was half-maximal at 375 nM (IC50).
On to `COCCO[C@H]1CC[C@H](NC(=O)c2cc(-c3ncc[nH]3)cc3cc[nH]c23)CC1` [Example 6, 5-(1H-imidazol-2-yl)-N-((1r,4r)-4-(2-methoxyethoxy)cyclohexyl)-1H-indole-7-carboxamide], for which the IC50 is > 100000 nM.
On the same count and under the same terms, then `O=C(N[C@H]1C[C@H](O)C1)c1cc(-c2cncs2)cc2[nH]ccc12` [Example 46, N-((1r,3r)-3-hydroxycyclobutyl)-6-(thiazol-5-yl)-1H-indole-4-carboxamide], with 678 nM; and `O=C(NCc1c(F)cccc1C(F)(F)F)c1cc(-c2cncs2)cc2[nH]ccc12` [Example 25, N-(2-fluoro-6-(trifluoromethyl)benzyl)-6-(thiazol-5-yl)-1H-indole-4-carboxamide], with 78 nM.

Still in this assay, the particulars now being: 30 min pre-incubation at room temperature, ε-NAD substrate 10 min, excitation 300 nm / emission 410 nm; read-out: hCD38 IC50.
As for `O=C(N[C@H]1CC[C@H](O)CC1)c1cc(-c2cncs2)cc2[nH]ccc12` [Example 41, N-((1r,4r)-4-hydroxycyclohexyl)-6-(thiazol-5-yl)-1H-indole-4-carboxamide], the IC50 was 37 nM.
As for `COCCCO[C@H]1CC[C@H](NC(=O)c2cc(-c3cncs3)cc3[nH]ccc23)CC1` [Example 37, N-((1r,4r)-4-(3-methoxypropoxy)cyclohexyl)-6-(thiazol-5-yl)-1H-indole-4-carboxamide], the IC50 worked out at 63 nM.
Same read-out and setting: the value for `COCCO[C@H]1C[C@H](NC(=O)c2cc(-c3cncs3)cc3[nH]ccc23)C1` [Example 30, N-((1r,3r)-3-(2-methoxyethoxy)cyclobutyl)-6-(thiazol-5-yl)-1H-indole-4-carboxamide] was 761 nM.
